#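 Grown in 96-well plates, cells were treated for 48 hours with each compound at five concentrations. Insufficient inhibition: endpoint recorded as highest concentration tested. TGI: concentration producing complete growth inhibition.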
# Tests used:
# Test in all cases: DTP human tumour cell line panel, 48 h
# MDA-MB-435 = system: MDA-MB-435
# HCT-15 colon = system: HCT-15 colon
# SF-539 CNS = system: SF-539 CNS
# MDA-MB-231 breast = system: MDA-MB-231 breast
# UO-31 renal = system: UO-31 renal
# SNB-75 CNS = system: SNB-75 CNS
# NCI-H522 lung = system: NCI-H522 lung
# DU-145 prostate = system: DU-145 prostate
# U251 CNS = system: U251 CNS
# MCF7 breast = system: MCF7 breast
# PC-3 prostate = system: PC-3 prostate
# UACC-62 melanoma = system: UACC-62 melanoma
# EKVX NSCLC = system: EKVX NSCLC
# NCI/ADR-RES ovarian = system: NCI/ADR-RES ovarian
# SF-295 CNS = system: SF-295 CNS
# HCT-116 colon = system: HCT-116 colon
# SW-620 colon = system: SW-620 colon
# SNB-19 CNS = system: SNB-19 CNS
# NCI-H226 lung = system: NCI-H226 lung
# NCI-H23 lung = system: NCI-H23 lung
# KM12 colon = system: KM12 colon
# OVCAR-4 ovarian = system: OVCAR-4 ovarian
# TK-10 renal = system: TK-10 renal
# RPMI-8226 leukemia = system: RPMI-8226 leukemia
# A549 NSCLC = system: A549 NSCLC
# M14 melanoma = system: M14 melanoma
# UACC-257 melanoma = system: UACC-257 melanoma
# HL-60(TB) leukemia = system: HL-60(TB) leukemia
# SF-268 CNS = system: SF-268 CNS
# HOP-62 NSCLC = system: HOP-62 NSCLC
# SK-MEL-28 melanoma = system: SK-MEL-28 melanoma
# OVCAR-8 ovarian = system: OVCAR-8 ovarian
# HOP-92 NSCLC = system: HOP-92 NSCLC
# 786-0 renal = system: 786-0 renal
# NCI-H460 lung = system: NCI-H460 lung
# SK-MEL-5 melanoma = system: SK-MEL-5 melanoma
# BT-549 breast = system: BT-549 breast
# HS 578T breast = system: HS 578T breast
# OVCAR-3 ovarian = system: OVCAR-3 ovarian
# HCC-2998 colon = system: HCC-2998 colon
# CCRF-CEM leukemia = system: CCRF-CEM leukemia
# MALME-3M melanoma = system: MALME-3M melanoma
# ACHN renal = system: ACHN renal
# HT29 colon = system: HT29 colon
# RXF 393 renal = system: RXF 393 renal
# SK-MEL-2 melanoma = system: SK-MEL-2 melanoma
# OVCAR-5 ovarian = system: OVCAR-5 ovarian
# CAKI-1 renal = system: CAKI-1 renal
# COLO 205 colon = system: COLO 205 colon
# SK-OV-3 ovarian = system: SK-OV-3 ovarian
# K-562 leukemia = system: K-562 leukemia
# IGROV1 ovarian = system: IGROV1 ovarian
# SN12C renal = system: SN12C renal
# T-47D breast = system: T-47D breast
# LOX IMVI melanoma = system: LOX IMVI melanoma
smiles,measurement,setting,value
O=C1CCCc2c1c1c(n2Cc2ccccc2)-c2ccccc2C1=O,TGI,MDA-MB-435,38.2 µM
same,TGI,HCT-15 colon,34.7 µM
same,TGI,SF-539 CNS,48.6 µM
same,TGI,MDA-MB-231 breast,42.9 µM
same,TGI,UO-31 renal,> 100 µM
same,TGI,SNB-75 CNS,> 100 µM
same,TGI,NCI-H522 lung,33.8 µM
same,TGI,DU-145 prostate,> 100 µM
same,TGI,U251 CNS,43.9 µM
same,TGI,MCF7 breast,> 100 µM
same,TGI,PC-3 prostate,96.6 µM
same,TGI,UACC-62 melanoma,44.9 µM
same,TGI,EKVX NSCLC,91.3 µM
same,TGI,NCI/ADR-RES ovarian,50.1 µM
same,TGI,SF-295 CNS,37.5 µM
same,TGI,HCT-116 colon,31.1 µM
same,TGI,SW-620 colon,> 100 µM
same,TGI,SNB-19 CNS,41.1 µM
same,TGI,NCI-H226 lung,66.1 µM
same,TGI,NCI-H23 lung,32.1 µM
same,TGI,KM12 colon,47 µM
same,TGI,OVCAR-4 ovarian,36.5 µM
same,TGI,TK-10 renal,31.4 µM
same,TGI,RPMI-8226 leukemia,24.3 µM
same,TGI,A549 NSCLC,88.2 µM
same,TGI,M14 melanoma,46.4 µM
same,TGI,UACC-257 melanoma,32.1 µM
same,TGI,HL-60(TB) leukemia,58.7 µM
same,TGI,SF-268 CNS,64.1 µM
same,TGI,HOP-62 NSCLC,50.2 µM
same,TGI,SK-MEL-28 melanoma,55.1 µM
same,TGI,OVCAR-8 ovarian,34 µM
same,TGI,HOP-92 NSCLC,99.7 µM
same,TGI,786-0 renal,66.5 µM
same,TGI,NCI-H460 lung,> 100 µM
same,TGI,SK-MEL-5 melanoma,40.7 µM
same,TGI,BT-549 breast,55.7 µM
same,TGI,HS 578T breast,77.3 µM
same,TGI,OVCAR-3 ovarian,36.7 µM
same,TGI,HCC-2998 colon,30.3 µM
same,TGI,CCRF-CEM leukemia,> 100 µM
same,TGI,MALME-3M melanoma,38.1 µM
same,TGI,ACHN renal,30.9 µM
same,TGI,HT29 colon,> 100 µM
same,TGI,RXF 393 renal,> 100 µM
same,TGI,SK-MEL-2 melanoma,43 µM
same,TGI,OVCAR-5 ovarian,> 100 µM
same,TGI,CAKI-1 renal,46.2 µM
same,TGI,COLO 205 colon,42.8 µM
same,TGI,SK-OV-3 ovarian,> 100 µM
same,TGI,K-562 leukemia,46.6 µM
same,TGI,IGROV1 ovarian,72.1 µM
same,TGI,SN12C renal,45.5 µM
same,TGI,T-47D breast,33.3 µM
same,TGI,LOX IMVI melanoma,39.5 µM
